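Cells were grown in 96-well plates and exposed to each compound for 48 hours at five concentrations; endpoints were interpolated linearly between bracketing concentrations, or set to the highest concentration if not reached. Here, GI50 denotes the concentration required for 50% inhibition of growth.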 Active and inactive are the calls of the source. Rule as the data show it: active = GI50 up to about 1.1 µM and inactive = higher.
Legend:
Assay in all cases: inhibition of tumour cell growth, NCI panel, 48 h
U-251 = tested on: U-251
A498 = tested on: A498
SNB-75 = tested on: SNB-75
RPMI-8226 = tested on: RPMI-8226
M14 = tested on: M14
COLO 205 = tested on: COLO 205
HL-60 = tested on: HL-60
SR = tested on: SR
TK-10 = tested on: TK-10
SK-MEL-5 = tested on: SK-MEL-5
LOX IMVI = tested on: LOX IMVI
UO-31 = tested on: UO-31
UACC-257 = tested on: UACC-257
786-0 = tested on: 786-0
OVCAR-3 = tested on: OVCAR-3
OVCAR-8 = tested on: OVCAR-8

Measured: GI50

N#C/N=C(/N)NCc1ccccc1
inactive: U-251 > 100 µM | A498 > 100 µM | SNB-75 > 100 µM | RPMI-8226 > 100 µM | M14 > 100 µM | COLO 205 > 100 µM | HL-60 > 100 µM | SR > 100 µM | TK-10 > 100 µM | SK-MEL-5 > 100 µM | LOX IMVI > 100 µM | UO-31 > 100 µM | UACC-257 > 100 µM | 786-0 > 100 µM | OVCAR-3 > 100 µM | OVCAR-8 > 100 µM

CCOC(=O)[C@H]1Nc2ccc(C)cc2C2c3ccccc3CC21 (some centres undefined)
inactive: U-251 > 100 µM | A498 33.4 µM | SNB-75 46.1 µM | RPMI-8226 > 100 µM | M14 > 100 µM | COLO 205 > 100 µM | SR > 100 µM | TK-10 > 100 µM | SK-MEL-5 > 100 µM | LOX IMVI > 100 µM | UO-31 > 100 µM | UACC-257 30.6 µM | 786-0 > 100 µM | OVCAR-3 > 100 µM | OVCAR-8 > 100 µM

CC(=O)c1c2c(cc3c1CC1(C3)Cc3cc4c(c(C(=O)O)c3C1)CCC4)CCC2 (centres undefined)
inactive: U-251 26.2 µM | SNB-75 69.8 µM | M14 41.2 µM | COLO 205 24.7 µM | HL-60 16.7 µM | SR 25.2 µM | TK-10 42.3 µM | SK-MEL-5 35.7 µM | LOX IMVI 32.4 µM | UO-31 26.9 µM | UACC-257 45 µM | 786-0 47.2 µM | OVCAR-3 19.7 µM | OVCAR-8 41 µM

CN(c1ccccc1)c1nc(=[N+]2CCCC2)ss1.[O-][Cl+3]([O-])([O-])[O-]
inactive: U-251 > 100 µM | A498 > 100 µM | SNB-75 > 100 µM | RPMI-8226 > 100 µM | M14 > 100 µM | COLO 205 11.1 µM | HL-60 > 100 µM | SR 17.1 µM | TK-10 > 100 µM | SK-MEL-5 > 100 µM | UO-31 > 100 µM | UACC-257 > 100 µM | 786-0 6.5 µM | OVCAR-3 > 100 µM | OVCAR-8 > 100 µM

CC(=O)CC(=O)ON(C)C(=O)Cc1ccccc1
inactive: U-251 > 100 µM | SNB-75 > 100 µM | RPMI-8226 > 100 µM | M14 > 100 µM | COLO 205 > 100 µM | HL-60 > 100 µM | SR > 100 µM | TK-10 > 100 µM | SK-MEL-5 > 100 µM | LOX IMVI > 100 µM | UO-31 > 100 µM | UACC-257 > 100 µM | 786-0 > 100 µM | OVCAR-3 > 100 µM | OVCAR-8 > 100 µM

COc1ccc(-c2nc(Sc3c([N+](=O)[O-])ncn3C)n[nH]2)cc1
inactive: U-251 2.25 µM | A498 10.5 µM | SNB-75 4.92 µM | RPMI-8226 3.66 µM | M14 2.17 µM | COLO 205 1.82 µM | SR 3.23 µM | TK-10 6.17 µM | SK-MEL-5 2.65 µM | LOX IMVI 2.72 µM | UO-31 5.13 µM | UACC-257 3.48 µM | 786-0 3.27 µM | OVCAR-3 1.94 µM | OVCAR-8 2.44 µM

CC(=O)Oc1cc(Cl)c(OC(C)=O)c2c(OC(C)=O)c(C)c(O[Si](C)(C)C(C)(C)C)cc12
inactive: U-251 2.32 µM | A498 2.09 µM | RPMI-8226 2.93 µM | M14 5.7 µM | COLO 205 15.1 µM | HL-60 2.84 µM | SR 3.62 µM | TK-10 5.31 µM | SK-MEL-5 4.41 µM | LOX IMVI 4.01 µM | UO-31 13.5 µM | UACC-257 3.23 µM | 786-0 14.9 µM | OVCAR-3 15.6 µM | OVCAR-8 2.52 µM

CN(C)C(=N)NC(=S)N(C)C
inactive: U-251 > 100 µM | A498 > 100 µM | SNB-75 > 100 µM | RPMI-8226 > 100 µM | M14 > 100 µM | HL-60 > 100 µM | SR > 100 µM | TK-10 > 100 µM | SK-MEL-5 > 100 µM | LOX IMVI > 100 µM | UO-31 > 100 µM | UACC-257 > 100 µM | 786-0 > 100 µM | OVCAR-8 > 100 µM

COc1ccc(C(=O)Cc2ccc(Br)cc2)cc1OC
inactive: U-251 > 100 µM | A498 40.4 µM | SNB-75 27.5 µM | RPMI-8226 > 100 µM | M14 > 100 µM | HL-60 > 100 µM | SR > 100 µM | TK-10 56 µM | SK-MEL-5 > 100 µM | LOX IMVI > 100 µM | UO-31 > 100 µM | UACC-257 > 100 µM | OVCAR-3 > 100 µM | OVCAR-8 > 100 µM

COC1(OC)CC2C(=O)N(Cc3ccccc3)C1C(S(=O)(=O)c1ccccc1)C2C(C)S(=O)(=O)c1ccccc1 (centres undefined)
inactive: U-251 > 100 µM | RPMI-8226 > 100 µM | M14 > 100 µM | COLO 205 > 100 µM | HL-60 > 100 µM | SR > 100 µM | TK-10 > 100 µM | SK-MEL-5 > 100 µM | LOX IMVI > 100 µM | UACC-257 > 100 µM | 786-0 > 100 µM | OVCAR-3 > 100 µM | OVCAR-8 > 100 µM

OC12CCC3(O)c4ccccc4C3C1c1ccccc12 (centres undefined)
inactive: U-251 > 100 µM | SNB-75 > 100 µM | RPMI-8226 > 100 µM | M14 > 100 µM | COLO 205 > 100 µM | HL-60 > 100 µM | SR > 100 µM | TK-10 > 100 µM | SK-MEL-5 > 100 µM | LOX IMVI > 100 µM | UO-31 > 100 µM | UACC-257 > 100 µM | 786-0 > 100 µM | OVCAR-8 > 100 µM

CC(CCCOC(c1ccccc1)(c1ccccc1)c1ccccc1)OC(=O)Nc1cc([N+](=O)[O-])cc([N+](=O)[O-])c1 (centres undefined)
inactive: U-251 36.9 µM | A498 22.8 µM | SNB-75 21.3 µM | RPMI-8226 32.5 µM | M14 34.9 µM | HL-60 31.6 µM | SR 38.5 µM | SK-MEL-5 22.8 µM | LOX IMVI 29.9 µM | UO-31 49 µM | UACC-257 24.3 µM | 786-0 28.2 µM | OVCAR-3 33.3 µM | OVCAR-8 33.5 µM

C/C(=N\O)C(CN(C)C)C(c1ccccc1)c1c(O)c2ccccc2oc1=O (centres undefined)
inactive: U-251 > 100 µM | A498 > 100 µM | SNB-75 > 100 µM | RPMI-8226 > 100 µM | M14 > 100 µM | COLO 205 > 100 µM | HL-60 > 100 µM | SR > 100 µM | TK-10 > 100 µM | SK-MEL-5 > 100 µM | LOX IMVI > 100 µM | UO-31 > 100 µM | UACC-257 > 100 µM | 786-0 > 100 µM | OVCAR-8 > 100 µM

Reference: ChEMBL document CHEMBL1201862, “PubChem BioAssay data set” (2004)
